Laboratory results: ChEMBL document CHEMBL3621085, “Tetrazole regioisomers in the development of nitro group-containing antitubercular agents” (Medchemcomm, 2015)
≈ marks a conversion by molar mass, not a printed value.

Columns and labels:
[1] = test system: Mycobacterium tuberculosis; test: Antimycobacterial activity against Mycobacterium tuberculosis My 331/88 after 14 days by micromethod; assay type: functional; conditions: My 331/88, 336 h
Mycobacterium avium [2] = test: Antimycobacterial activity against Mycobacterium avium My 330/88 after 14 days by micromethod; assay type: functional; conditions: My 330/88, 336 h
[3] = test system: Mycobacterium tuberculosis; test: Antimycobacterial activity against Mycobacterium tuberculosis My 331/88 after 21 days by micromethod; assay type: functional; conditions: My 331/88, 504 h
Mycobacterium avium [4] = test: Antimycobacterial activity against Mycobacterium avium My 330/88 after 21 days by micromethod; assay type: functional; conditions: My 330/88, 504 h
Mycobacterium kansasii [5] = test: Antimycobacterial activity against Mycobacterium kansasii My 235/80 after 7 days by micromethod; assay type: functional; conditions: My 235/80, 168 h
Mycobacterium kansasii [6] = test: Antimycobacterial activity against Mycobacterium kansasii My 235/80 after 14 days by micromethod; assay type: functional; conditions: My 235/80, 336 h
Mycobacterium kansasii [7] = test: Antimycobacterial activity against Mycobacterium kansasii My 235/80 after 21 days by micromethod; assay type: functional; conditions: My 235/80, 504 h
Mycobacterium kansasii [8] = test: Antimycobacterial activity against Mycobacterium kansasii 6509/96 after 7 days by micromethod; assay type: functional; conditions: 6509/96, 168 h
Mycobacterium kansasii [9] = test: Antimycobacterial activity against Mycobacterium kansasii 6509/96 after 14 days by micromethod; assay type: functional; conditions: 6509/96, 336 h
Mycobacterium kansasii [10] = test: Antimycobacterial activity against Mycobacterium kansasii 6509/96 after 21 days by micromethod; assay type: functional; conditions: 6509/96, 504 h
[11] = Cytotoxicity against CHOK1 cells assessed as viability after 24 hrs by MTT assay; assay type: cell-based; conditions: Cricetulus griseus, CHO-K1, 24 h

SMILES | MIC [1] [µM] | MIC (Mycobacterium avium [2]) [µM] | MIC [3] [µM] | MIC (Mycobacterium avium [4]) [µM] | MIC (Mycobacterium kansasii [5]) [µM] | MIC (Mycobacterium kansasii [6]) [µM] | MIC (Mycobacterium kansasii [7]) [µM] | MIC (Mycobacterium kansasii [8]) [µM] | MIC (Mycobacterium kansasii [9]) [µM] | MIC (Mycobacterium kansasii [10]) [µM] | IC50 [11] [µM]
NNC(=O)c1ccncc1 [ISONIAZID] | 0.5 (≈ 0.0686 µg/mL) | 250 (≈ 34.3 µg/mL) | 1 (≈ 0.137 µg/mL) | 250 (≈ 34.3 µg/mL) | 250 (≈ 34.3 µg/mL) | 250 (≈ 34.3 µg/mL) | 250 (≈ 34.3 µg/mL) | 4 (≈ 0.549 µg/mL) | 4 (≈ 0.549 µg/mL) | 4 (≈ 0.549 µg/mL) | 
O=[N+]([O-])c1ccc(C[Se]c2nnnn2Cc2ccccc2)c([N+](=O)[O-])c1 | 8 (≈ 3.35 µg/mL) | 250 (≈ 105 µg/mL) | 16 (≈ 6.71 µg/mL) | 250 (≈ 105 µg/mL) | 16 (≈ 6.71 µg/mL) | 32 (≈ 13.4 µg/mL) | 125 (≈ 52.4 µg/mL) | 16 (≈ 6.71 µg/mL) | 62 (≈ 26 µg/mL) | 125 (≈ 52.4 µg/mL) | 8.5
Cn1nnnc1SCc1cc([N+](=O)[O-])cc([N+](=O)[O-])c1 | 4 (≈ 1.19 µg/mL) | 500 (≈ 148 µg/mL) | 8 (≈ 2.37 µg/mL) | 1000 (≈ 296 µg/mL) | 4 (≈ 1.19 µg/mL) | 16 (≈ 4.74 µg/mL) | 32 (≈ 9.48 µg/mL) | 16 (≈ 4.74 µg/mL) | 32 (≈ 9.48 µg/mL) | 32 (≈ 9.48 µg/mL) | 
O=[N+]([O-])c1ccc(Cn2nnnc2[Se]Cc2ccccc2)c([N+](=O)[O-])c1 | 1 (≈ 0.419 µg/mL) | 16 (≈ 6.71 µg/mL) | 2 (≈ 0.839 µg/mL) | 32 (≈ 13.4 µg/mL) | 32 (≈ 13.4 µg/mL) | 62 (≈ 26 µg/mL) | 62 (≈ 26 µg/mL) | 16 (≈ 6.71 µg/mL) | 62 (≈ 26 µg/mL) | 125 (≈ 52.4 µg/mL) | 
Cn1nnnc1SCc1ccc([N+](=O)[O-])cc1[N+](=O)[O-] | 16 (≈ 4.74 µg/mL) | 125 (≈ 37 µg/mL) | 16 (≈ 4.74 µg/mL) | 500 (≈ 148 µg/mL) | 125 (≈ 37 µg/mL) | 500 (≈ 148 µg/mL) | 500 (≈ 148 µg/mL) | 125 (≈ 37 µg/mL) | 500 (≈ 148 µg/mL) | 500 (≈ 148 µg/mL) | 
Cn1nnc(SCc2cc([N+](=O)[O-])cc([N+](=O)[O-])c2)n1 | 2 (≈ 0.593 µg/mL) | 125 (≈ 37 µg/mL) | 4 (≈ 1.19 µg/mL) | 250 (≈ 74.1 µg/mL) | 4 (≈ 1.19 µg/mL) | 8 (≈ 2.37 µg/mL) | 8 (≈ 2.37 µg/mL) | 8 (≈ 2.37 µg/mL) | 16 (≈ 4.74 µg/mL) | 16 (≈ 4.74 µg/mL) | 
Cn1nnc(SCc2ccc([N+](=O)[O-])cc2[N+](=O)[O-])n1 | 4 (≈ 1.19 µg/mL) | 125 (≈ 37 µg/mL) | 8 (≈ 2.37 µg/mL) | 125 (≈ 37 µg/mL) | 32 (≈ 9.48 µg/mL) | 125 (≈ 37 µg/mL) | 125 (≈ 37 µg/mL) | 32 (≈ 9.48 µg/mL) | 125 (≈ 37 µg/mL) | 125 (≈ 37 µg/mL) | 
Cn1nnnc1[Se]Cc1ccc([N+](=O)[O-])cc1[N+](=O)[O-] | 32 (≈ 11 µg/mL) | 250 (≈ 85.8 µg/mL) | 32 (≈ 11 µg/mL) | 250 (≈ 85.8 µg/mL) | 62 (≈ 21.3 µg/mL) | 125 (≈ 42.9 µg/mL) | 125 (≈ 42.9 µg/mL) | 62 (≈ 21.3 µg/mL) | 125 (≈ 42.9 µg/mL) | 250 (≈ 85.8 µg/mL) | 
Cn1nnc([Se]Cc2ccc([N+](=O)[O-])cc2[N+](=O)[O-])n1 | 16 (≈ 5.49 µg/mL) | 62 (≈ 21.3 µg/mL) | 16 (≈ 5.49 µg/mL) | 62 (≈ 21.3 µg/mL) | 32 (≈ 11 µg/mL) | 125 (≈ 42.9 µg/mL) | 125 (≈ 42.9 µg/mL) | 16 (≈ 5.49 µg/mL) | 62 (≈ 21.3 µg/mL) | 125 (≈ 42.9 µg/mL) | 
COc1ccc(C[Se]c2nnnn2Cc2cc([N+](=O)[O-])cc([N+](=O)[O-])c2)cc1 | 16 (≈ 7.19 µg/mL) | 125 (≈ 56.2 µg/mL) | 16 (≈ 7.19 µg/mL) | 125 (≈ 56.2 µg/mL) | 16 (≈ 7.19 µg/mL) | 32 (≈ 14.4 µg/mL) | 62 (≈ 27.9 µg/mL) | 16 (≈ 7.19 µg/mL) | 32 (≈ 14.4 µg/mL) | 62 (≈ 27.9 µg/mL) | 
O=[N+]([O-])c1cc(CSc2nnnn2Cc2ccc(Cl)c(Cl)c2)cc([N+](=O)[O-])c1 | 2 (≈ 0.883 µg/mL) | 125 (≈ 55.2 µg/mL) | 2 (≈ 0.883 µg/mL) | 125 (≈ 55.2 µg/mL) | 2 (≈ 0.883 µg/mL) | 4 (≈ 1.77 µg/mL) | 4 (≈ 1.77 µg/mL) | 2 (≈ 0.883 µg/mL) | 4 (≈ 1.77 µg/mL) | 8 (≈ 3.53 µg/mL) | 140
O=[N+]([O-])c1cc(Cn2nnc(SCc3ccccc3)n2)cc([N+](=O)[O-])c1 | 16 (≈ 5.96 µg/mL) | 125 (≈ 46.5 µg/mL) | 16 (≈ 5.96 µg/mL) | 125 (≈ 46.5 µg/mL) | 16 (≈ 5.96 µg/mL) | 32 (≈ 11.9 µg/mL) | 32 (≈ 11.9 µg/mL) | 16 (≈ 5.96 µg/mL) | 32 (≈ 11.9 µg/mL) | 32 (≈ 11.9 µg/mL) | 148
O=[N+]([O-])c1ccc(C[Se]c2nnn(Cc3ccc([N+](=O)[O-])cc3)n2)cc1 | 62 (≈ 26 µg/mL) | 250 (≈ 105 µg/mL) | 62 (≈ 26 µg/mL) | 250 (≈ 105 µg/mL) | 32 (≈ 13.4 µg/mL) | 125 (≈ 52.4 µg/mL) | 125 (≈ 52.4 µg/mL) | 62 (≈ 26 µg/mL) | 125 (≈ 52.4 µg/mL) | 125 (≈ 52.4 µg/mL) | 
O=[N+]([O-])c1ccc(CSc2nnnn2Cc2ccc([N+](=O)[O-])cc2)cc1 | 500 (≈ 186 µg/mL) | 250 (≈ 93.1 µg/mL) | 500 (≈ 186 µg/mL) | 250 (≈ 93.1 µg/mL) | 250 (≈ 93.1 µg/mL) | 250 (≈ 93.1 µg/mL) | 250 (≈ 93.1 µg/mL) | 250 (≈ 93.1 µg/mL) | 250 (≈ 93.1 µg/mL) | 250 (≈ 93.1 µg/mL) | 
